The values that follow come from BindingDB's records for patent US20260042754 (Nodus Oncology, 2026).

In this test the target is Poly(ADP-ribose) glycohydrolase (Homo sapiens, UniProt Q86W56). Put plainly: PARG Enzymatic Assay. As for the experimental part:
Inhibition of PARG enzymatic activity by compounds was determined as follows: Recombinant His-tagged human PARG protein expressed in Sf21 insect cells (Adipogen AG, #40T-0022) was aliquoted and stored at −80° C. until use. The artificial enzyme substrate 4-(trifluoromethyl)umbelliferone (TFMU)-ADPr was prepared essentially as described (Drown B S et al, Cell Chemical Biology 2018) and stored at −20° C. as 10 mM stock solutions in DMSO (dimethyl sulfoxide) until use. For reactions, typical final concentration of the enzyme was 1 nM and of the TFMU-ADPr 200 μM. Reactions were carried out in black 384-well low volume round bottom assay plates (Corning, #4514) in a final volume of 10 μL. To this end, PARG was diluted to 1.67 nM in reaction buffer (50 mM K2HPO4, 50 mM KCl, 10 mM β-mercaptoethanol, pH 7.4) and 6 μL were dispensed per assay well using a multichannel pipette. […] Fluorescence intensity signals were then measured after 30 minutes on an EnVision microplate reader (PerkinElmer) using 380/10 nm and 535/25 nm filters for the excitation and emission, respectively (gain: 150). […]

Chain of Poly(ADP-ribose) glycohydrolase (Q86W56 whole entry): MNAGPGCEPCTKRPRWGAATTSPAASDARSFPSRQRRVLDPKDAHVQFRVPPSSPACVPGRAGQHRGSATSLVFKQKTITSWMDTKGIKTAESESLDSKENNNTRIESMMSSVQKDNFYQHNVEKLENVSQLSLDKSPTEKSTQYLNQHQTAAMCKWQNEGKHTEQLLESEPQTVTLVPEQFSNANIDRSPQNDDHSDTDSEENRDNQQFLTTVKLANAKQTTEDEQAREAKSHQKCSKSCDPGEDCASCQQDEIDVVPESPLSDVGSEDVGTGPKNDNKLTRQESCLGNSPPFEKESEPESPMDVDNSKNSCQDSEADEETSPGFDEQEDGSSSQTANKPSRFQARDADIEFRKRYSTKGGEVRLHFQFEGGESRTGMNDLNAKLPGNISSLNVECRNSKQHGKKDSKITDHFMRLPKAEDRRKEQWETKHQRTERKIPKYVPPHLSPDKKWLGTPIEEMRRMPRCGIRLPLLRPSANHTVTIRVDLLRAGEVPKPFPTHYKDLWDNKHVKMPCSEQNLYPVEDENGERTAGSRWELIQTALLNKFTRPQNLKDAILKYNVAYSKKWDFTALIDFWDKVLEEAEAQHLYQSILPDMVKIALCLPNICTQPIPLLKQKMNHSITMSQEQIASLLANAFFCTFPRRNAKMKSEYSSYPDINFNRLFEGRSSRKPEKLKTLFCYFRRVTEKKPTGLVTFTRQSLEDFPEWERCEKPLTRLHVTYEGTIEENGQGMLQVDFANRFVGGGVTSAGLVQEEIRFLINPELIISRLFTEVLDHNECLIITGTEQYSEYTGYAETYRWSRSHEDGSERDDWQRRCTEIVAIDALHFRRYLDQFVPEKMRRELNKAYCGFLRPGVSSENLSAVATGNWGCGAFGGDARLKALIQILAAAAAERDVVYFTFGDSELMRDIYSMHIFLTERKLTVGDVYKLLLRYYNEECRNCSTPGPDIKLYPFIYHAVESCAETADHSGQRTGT

Take `CO/N=c1\[nH]c2c(N3CCN(C(=O)C4(C(F)(F)F)CC4)[C@H](C)C3)cc(S(=O)(=O)NC3(C)CC3)cc2c(=O)n1Cc1cnn(C)c1` [US20260042754, Example 32]: the IC50 – broadly, the concentration that gives 50% inhibition – was under 30 nM.
